Residues, ends and D or L forms follow the SMILES beside them.

This note sets out measurements from publication PMC11234452, “HydrogelFinder: A Foundation Model for Efficient Self‐Assembling Peptide Discovery Guided by Non‐Peptidal Small Molecules” (Advanced Science, 2024).

What all share (assay type): physicochemical
Series [1] is described as follows: TEM of hydrogel matrix, nanofiber width. Particulars: uranyl formate stain, ImageJ, 30 measurements per picture. The procedure:
These nanofibers were entangled with one another, forming a 3D‐network that comprised the hydrogel matrix (Figure 4B).
The sample was prepared by placing a drop of peptide solution on a 200‐mesh copper grid (Electron Microscopy China) and allowed to stand for 1.0 min, then blotted with filter paper. Subsequently a drop of 1.0% Uranyl Formate was placed on the grid and allowed to stand for 1–2 min, then blotted with a piece of filter paper and left to air dry. Images were taken with a JEOL JEM‐2100Plus at 80 kV accelerating voltage. By calculating the width of peptide, The image J was used to measure 30 times for 1 TEM picture, and to gather statistics with frequency.^[ [26] ^]

Series [2] is described as follows: Oscillatory rheology, dynamic time sweep. Particulars: 37 °C, 15 mm parallel geometry, gap 0.5 mm, G′ consistently higher than G″. The protocol:
To further explore the gelation properties and self‐assembly behavior of the candidate self‐assembling molecules, we carried out a series of biophysical characterization experiments.
All rheological experiments were performed on an Anton Parr equipped with a steel 15 mm parallel geometry tool. […] To avoid dehydration, a layer of silicon oil was applied around the edge of the sample at the start of the measurement. Dynamic strain sweep experiments were performed to ensure that the time‐sweep data was collected in the linear regime of strain. The dynamic strain sweep was performed varying the strain from 0.1 to 100% at a constant frequency (6 rad s^−1).

Series [3] can be described thus: Hydrogelation test, inverted tube method. To be noted: for pH (of hydrogelation) / Conc. (hydrogelation concentration): 37 °C overnight; for Conc. (hydrogelation concentration): pH adjusted with NaOH or HCl. The procedure: We subsequently evaluated their gelation capability (Figure S2, Supporting Information). After purification by HPLC, the obtained compounds were dissolved in water and the pH of the solution was adjusted to trigger self‐assembly and hydrogelation.
Observing gel behavior in an inverted test tube is a rapid and facile approach to determine whether a dissolved peptide formed a gel.
All compounds were placed in a glass tube (diameter 10 mm) and first dissolved in D.I water, sonicated for 5 min and putted on ice for 30 min. Then added 2x PBS buffer (5.4 mM KCl, 20 mM Na2HPO4, 4 mM KH2PO4) or D.I water to reach the final concentration of 1.0 wt%. pH was adjusted with NaOH or HCl. The solutions were stored in 37 °C incubator overnight. Gelation was confirmed by the inverting method.

`NC(=O)[C@H](Cc1ccccc1)NC(=O)[C@H](CC(=O)O)NC(=O)CNC(=O)[C@H](CCC(=O)O)NC(=O)[C@H](Cc1ccccc1)NC(=O)[C@H](CCC(=O)O)NC(=O)[C@@H](N)Cc1c[nH]c2ccccc12` [compound 16] (H-WEFEGDF-NH2; N-terminus assumed): the nanofiber width in series [1] is 9–10 nm. For the same compound, in series [2], the “storage modulus (G′) at equilibrium” value worked out at 1254 Pa. Also, in series [3] (buffer 1X PBS), the “pH (of hydrogelation)” value was 5.0 and the “Conc. (hydrogelation concentration)” value came to 1.0 wt%.
Take “EYVRFF [compound 368, self-assembling peptide EYVRFF]”: in series [3] (buffer 1X PBS), the “pH (of hydrogelation)” value was found to be 3.0 and the “Conc. (hydrogelation concentration)” value was determined as 1.0 wt%. For the same compound, the “gelation outcome / gel appearance” value in series [3] (in water, pH adjusted (2–12)) is “opaque hydrogel”.
For “FFFVF‐NH2 [compound 322, self-assembling peptide FFFVF‐NH2]”, the nanofiber width result in series [1] is on record as “approximately 14 nm”. Also, the “storage modulus (G′) at equilibrium” value in series [2] was 21,393 Pa. In series [3] (in water), the “pH (of hydrogelation)” value is reported as 7.0 and the “Conc. (hydrogelation concentration)” value was 1.0 wt%.
Turning to “FYGVF‐NH2 [compound 166, self-assembling peptide FYGVF‐NH2]”, the nanofiber width in series [1] was roughly 25 nm. Further, in series [3] (in water), the “pH (of hydrogelation)” value is listed as 7.0 and the “Conc. (hydrogelation concentration)” value turned out to be 0.5 wt%.
Take “VKVKAFIDDK [compound 560, self-assembling peptide […]]”: in series [3] (buffer 1X PBS), the “pH (of hydrogelation)” value is on record as 8.0 and the “Conc. (hydrogelation concentration)” value turned out to be 1.0 wt%.
